In PubChem BioAssay AID1996:
Converted amounts (≈) assume the structure as drawn.

Settings: buffer; pH 7.4; 200.0 µM

Row | solubility kinetic | Compound
1 | 12.7 µg/mL (≈ 48.3 µM) | O=C(COc1ccccc1)Nc1ccc(Cl)cn1
2 | > 46.3 µg/mL | COc1ccc(NC(=O)Cn2c(C)csc2=O)c(OC)c1
3 | 36.5 µg/mL (≈ 138 µM) | Cc1cccc(NC(=S)N2CCC(O)CC2)c1C
4 | > 50.5 µg/mL | CC(=O)N1CCN(Cc2nc3ccc(Cl)cc3n2CCO)CC1
5 | > 33.3 µg/mL | O=Cc1c(-c2ccccc2)nc2ccccn12
6 | > 40 µg/mL | O=C(NC1=NCCCCC1)c1cccc2ccccc12
7 | > 54 µg/mL | O=C(O)c1cc([N+](=O)[O-])c(Sc2nc3ccccc3[nH]2)c([N+](=O)[O-])c1
8 | 44.2 µg/mL (≈ 133 µM) | S=C(Nc1cccnc1)N1CCN(c2ccccc2Cl)CC1
9 | 53.8 µg/mL (≈ 132 µM) | Cc1cccc(C(=O)NCC(=O)OCc2nc(N)nc(Nc3ccccc3C)n2)c1
10 | 6.7 µg/mL (≈ 21.8 µM) | N#CCc1ccc(NC(=O)Cn2c(=O)oc3ccccc32)cc1
11 | 19.5 µg/mL (≈ 56 µM) | Cc1ccc2oc(=O)cc(CN3CCN(Cc4ccccc4)CC3)c2c1
12 | 40.9 µg/mL (≈ 140 µM) | Cc1sc(NC(=O)/C=C/c2ccco2)c(C(=O)O)c1C
13 | 0.9 µg/mL (≈ 2.4 µM) | COC(=O)c1ccc(NC(=O)c2cccc(NC(=O)c3ccccc3)c2)cc1
14 | > 52.1 µg/mL | CC1(NC(=O)Nc2cccc(Br)c2)CCS(=O)(=O)C1 (stereo not given)
15 | > 44.9 µg/mL | O=C1NC(=O)C(Cc2cccc(Oc3ccccc3)c2)S1 (stereo not given)
16 | 8.1 µg/mL (≈ 27.1 µM) | O=C(Nc1ccc(NC(=O)C2CC2)nc1)c1ccccc1F
17 | > 35.6 µg/mL | O=C(O)C1C2CCC(C2)C1C(=O)N1CCCC1 (stereo not given)
18 | 35.5 µg/mL (≈ 102 µM) | Cc1cc(C)c2nc(C)cc(Nc3ccc(C(=O)NCCO)cc3)c2c1
19 | 3 µg/mL (≈ 10 µM) | Cc1cccc(C)c1NC(=O)COC(=O)c1ccccc1O
20 | > 41 µg/mL | NC(=O)CN1C(=O)NC2(CCCc3ccccc32)C1=O (stereo not given)

Row | solubility kinetic | Compound
21 | > 52 µg/mL | COc1ccc(-n2cnnc2SCC(=O)NC2CCCCC2)cc1
22 | > 40.1 µg/mL | O=C(Nc1ccc(Cl)c(Cl)c1)c1cccnc1
23 | 38.8 µg/mL (≈ 123 µM) | COC(=O)[C@H](CCSC)NC(=O)c1cccnc1SC
24 | > 35.6 µg/mL | O=C(Cc1ccc(F)cc1)NCC1CCCO1 (stereo not given)
25 | 7 µg/mL (≈ 19.8 µM) | CCc1cccc2c(C(=O)CN3C(=O)NC4(CCCCC4)C3=O)c[nH]c12
26 | > 53.6 µg/mL | Cc1noc(C)c1COc1ccc(C(=O)N2CCC(C(N)=O)CC2)cc1
27 | > 47.5 µg/mL | Cc1nnc(NC(=O)C2CC(=O)N(Cc3ccccc3)C2)s1 (stereo not given)
28 | 43 µg/mL (≈ 128 µM) | C(=C\c1ccccc1)/CN1CCN(Cc2ccc3c(c2)OCO3)CC1
29 | > 51.4 µg/mL | O=C(N/C(=C/c1ccc(F)cc1)C(=O)N1CCCCC1)c1ccco1
30 | 8.4 µg/mL (≈ 19.3 µM) | CCOc1ccc2nc(NC(=O)C3(C)CC3(Br)Br)sc2c1 (stereo not given)
31 | 28.3 µg/mL (≈ 117 µM) | O/C(=C\c1nc2ccccc2[nH]1)c1cccs1
32 | > 51.1 µg/mL | CCOCCn1c(SC(C)C(C)=O)nc2c1c(=O)[nH]c(=O)n2C (stereo not given)
33 | 37.6 µg/mL (≈ 108 µM) | COc1ccc(S(=O)(=O)N(C)CC(=O)NCc2ccccn2)cc1
34 | 37 µg/mL (≈ 137 µM) | CCOc1ccc(C=NCC(O)c2ccccc2)cc1 (stereo not given)
35 | > 56.3 µg/mL | CCOc1ccc(S(=O)(=O)N2CCN(C(=O)c3ccncc3)CC2)cc1
36 | > 38 µg/mL | CN1CCC(N(C)C(=O)NC2CCCCC2)CC1
37 | > 46.1 µg/mL | O=C(NNC(=O)c1ccccn1)c1ccc(OC(F)F)cc1
38 | 25.6 µg/mL (≈ 89.4 µM) | N/C(=N\OC(=O)c1ccncc1)c1cccc([N+](=O)[O-])c1
39 | > 45.8 µg/mL | O=C(COC(=O)Cc1ccccc1F)Nc1cccc(F)c1
40 | < 0.3 µg/mL | O=C(Nc1ccccc1C(=O)Nc1ccccn1)c1cc(F)c(F)cc1Cl

Row | solubility kinetic | Compound
41 | > 46.8 µg/mL | COc1ccc(/C=N/NC(=O)CNC(=O)c2ccncc2)cc1
42 | 6.9 µg/mL (≈ 20.9 µM) | O=C(CCNC(=O)c1ccccc1)NCCc1ccc(Cl)cc1
43 | > 47.1 µg/mL | O=C(Cn1cc([N+](=O)[O-])cn1)NCCc1nc2ccccc2[nH]1
44 | > 47 µg/mL | Cc1cc(NC(=O)C2CC(=O)N(c3cccc(C)c3C)C2)no1 (stereo not given)
45 | 24.6 µg/mL (≈ 101 µM) | Cc1cc(C=O)c(C)n1-c1ccc2c(c1)OCO2
46 | > 42 µg/mL | Cc1occc1C(=O)Nc1ccc(S(N)(=O)=O)cc1
47 | 7 µg/mL (≈ 21.9 µM) | O=C(c1ccco1)N1CCN(c2ccc([N+](=O)[O-])cc2F)CC1
48 | 1.4 µg/mL (≈ 4.32 µM) | O=C(CN1C(=O)COc2ccc(Cl)cc21)Nc1nccs1
49 | 8.2 µg/mL (≈ 22.9 µM) | O=C(COC(=O)c1c(Cl)cccc1Cl)NC1CCCCCCC1
50 | 29.4 µg/mL (≈ 128 µM) | CCN(Cc1ccncc1)C(=O)c1ccco1
51 | 31.9 µg/mL (≈ 138 µM) | COc1ccc(NC(=O)c2coc(C)c2)cc1
52 | < 0.4 µg/mL | Cn1cc(/C=C2\SC(=O)N(c3ccc(O)cc3)C2=O)c2ccccc21
53 | 17.8 µg/mL (≈ 56.2 µM) | COc1ccc(-c2noc(=O)n2Cc2ccccc2Cl)cc1
54 | > 49.1 µg/mL | CN(CC(=O)Nc1ccccc1C(=O)NC1CC1)Cc1ccco1
55 | > 37 µg/mL | Cc1cccc(NC(=O)N2CCCCCC2)c1C
56 | 0.4 µg/mL (≈ 1.07 µM) | Cc1onc(-c2ccccc2)c1CNC(=O)Nc1ccc(C(F)(F)F)cc1
57 | > 48.1 µg/mL | Cc1ccccc1NC(=O)c1cccc(NC(=O)c2ccco2)c1
58 | > 38.3 µg/mL | COCCNC(=S)Nc1ccccc1[N+](=O)[O-]
59 | 27.9 µg/mL (≈ 110 µM) | CCN1C(=O)CSC1=Nc1ccccc1Cl
60 | 46 µg/mL (≈ 147 µM) | O=C(c1ccoc1)N1CCC(CO)(CCc2ccccc2)CC1
